# Reference: patent US20240238278A1, “Pharmaceutical Composition for Preventing or Treating Fibrosis” (Daewoong Pharmaceutical Co., Ltd., priority 2021, published 2024)
# Columns and labels:
# DHLF cell line = assay: Non-clinical anti-fibrotic efficacy: Western blotting of TGF-β treated DHLF cell line; assay type: cell-based; conditions: TGF-β 10 ng/ml, 72 hours
# Description: 10 mM of the first component was diluted with DMSO so as to be to 100 uM. It was diluted with DMSO so as to be 10, 3, 1 uM, and 10 mM of the second component (NIN) was diluted with DMSO to be 50 nM.
# A DHLF cell line (FGM™-2 Bullet Kit™, 10% FBS), which is a lung fibrosis cell line, was prepared, and cultured in a T75 Easy Flask Filter at 37° C. and 5% CO2 using FBM medium. The cultured DHLF cell line was treated with 10 ng/mL of TGF-β and the test drug alone or in combination, cultured for 72 hours, then the media was removed, the protein was extracted, and the extracted protein was quantified using the BCA Protein Assay Kit. Based on the quantitative value of each extracted protein, 10 to 20 ug of protein was subjected to Western blotting. The protein after running was transferred to the PVDF membrane. After TBS-T washing 3 times, each PVDF membrane was treated with 1 mL of ECL solution, and then the protein expression level was measured using an AI680 imager. Each band value was calculated as a numerical value normalized compared to β-actin through ImageJ, and is shown in Tables 2 and 3 and FIGS. 1 and 2 below.
# [1] = tested on: animal model of pulmonary fibrosis; assay: Lung function evaluation (SpO2) in BLM animal model; assay type: in vivo, mouse; conditions: BLM mice, PO, day 21, first component 10 mg/kg, NIN 60 mg/kg, PID 200 mg/kg
# Description: (§1) 70-100 uL of BLM solution (bleomycin 1-3 mg/kg) was administered to a lung of the acclimatized experimental animals using a catheter for 5 days or more. In accordance with the purpose of the test, the test drug was administered 7 days after BLM administration, and the drug was orally administered for 2 weeks until the 21st day of BLM administration.
# This lung function evaluation is the most direct and important evaluation index that has the greatest influence on the symptoms and quality of life of patients with pulmonary fibrosis, and is an experiment that can most directly show the effect of improving lung function in an animal model of pulmonary fibrosis by measuring the oxygen concentration in the body.
# On the 21st day, it was measured with a SpO2 measuring device (Berry, Veterinary Pulse Oximeter) via the abdominal side of the mouse, and the results are shown in Table 5 and FIG. 3.
# [2] = tested on: animal model of pulmonary fibrosis; assay: Measurement of total collagen content in lung (INSOLUBLE Collagen Assay); assay type: in vivo, mouse; conditions: BLM mice, PO, day 21, n 9; first component 10 mg/kg, NIN 60 mg/kg, PID 200 mg/kg
# Description: as §1
# In this experimental example, analysis was performed using INSOLUBLE Collagen Assay (Biocolor, S2000). After sacrifice on the 21st day, the cryopreserved lung tissue was pulverized by adding 100 uL of Fragmentation Reagent, and then, 100 uL of 37% HCl was added and incubated at 65° C. for 3 hours. The contents of the tube were shaken at 30 minute intervals to aid tissue disintegration. After centrifugation, the concentration was adjusted to 100 μL and collagen staining was proceeded to prepare a sample. Absorbance was measured at 560 nm.
# [3] = tested on: animal model of pulmonary fibrosis; assay: Inflammation cell count analysis in BALF; assay type: in vivo; conditions: BLM mice, PO, day 21; first component 10 mg/kg, NIN 60 mg/kg, PID 200 mg/kg
# Description: as §1
# At the sacrifice on the 21st day of administration, BALF (Bronchoalveolar lavage fluid) cells obtained through airway washing of mice were diluted with 1.05×PBS and attached to a slide, and then the slide was immersed and removed for 30 seconds in the order of 1, 2, 3 diff quick stain solution, and stained. It was counted based on 500 cells. Macrophages are the largest in size, mononuclear, and stained blue. Neutrophils and eosinophils form polynuclear cells, but eosinophils are stained red with eosin and distinguished from neutrophils. Lymphocytes have very less cytoplasm and are small in size as monocytes.
# [4] = Measurement of change in body weight in BLM animal model; assay type: in vivo, mouse; parameters: unit not given here; conditions: BLM mice, first component 10 mg/kg, NIN 60 mg/kg, PID 200 mg/kg
# Description: as §1
# The body weight was measured once every 0, 7, 14, 17, and 21 days for 3 weeks, and from the 14th day when the drug effect began to be noticeable after the administration, it was measured every 3 days.
# [5] = Drug interaction clinical trial, combined administration; assay type: in vivo, human; conditions: Part 2, healthy adults; first component 150 mg enteric tablet
# Description: To evaluate the drug interaction during the combined administration of the first component and the second component, a clinical trial was conducted on a total of 48 healthy adults, divided into two groups of 24 each for Part 1 and Part 2. The clinical trial was designed by a fixed sequence, three-phase, and one 150 mg enteric tablet of the first component was orally administered.
# Subjects enrolled in Part 1 were sequentially given a single dose of 600 mg of the second component (PID) in the phase 1, a single dose of 150 mg of the first component in the phase 2. After that, washout progressed on the 3rd day, and 150 mg of the first component was administered multiple times for 3 days, and in the final phase 3, a single dose of the first component and the second components (NIN) was administered in combination.
# [6] = Human pharmacokinetics, single administration; assay type: in vivo; conditions: for CL/F / Cmax / MRT / T1/2 / tmax (median) / AUC(0-inf) / AUC(0-t) / Tmax: healthy adults, empty stomach; for Tmax: read-out: tmax (median)
# Description: (§2) The formulation used in the clinical trial was prepared in the same manner as in Preparation Examples 1 and 2.
# [7] = Human pharmacokinetics, multiple administration (Day 14); assay type: in vivo; conditions: for Accumulation ratio based on AUCτ / CL/Fss / Cmax, ss / MRT / T1/2 / Vz/Fss / tmax, ss (median) / AUCτ / AUC(0-inf): healthy adults; for Accumulation ratio based on AUCτ / CL/Fss / Cmax, ss / MRT / T1/2 / Vz/Fss / tmax, ss (median) / AUC(0-inf): Day 14; for AUCτ: Day 14, 12 hour dosing interval
# Description: as §2
# [8] = Pharmacokinetic model prediction of exposure in humans at various oral doses; parameters: species or system human; conditions: model-predicted
# From the text: Therefore, the optimal pharmacokinetic model parameters that can explain the changes in concentrations at all doses observed using Excel® and WinNonlin8.1 software were estimated for the blood drug concentration obtained in the human multidose clinical trial.
# [9] = Safety/tolerance in healthy adults clinical trial; assay type: in vivo, human; conditions: 72 healthy adults, single (100-600 mg) and multiple (25-200 mg twice a day, 14 days) administration
# Description: as §2
# [10] = Table 2, second component (NIN) 50 ng/ml alone
# [11] = Table 3, second component (NIN) 100 ng/ml alone
# [12] = single oral 100 mg, enteric coated capsules
# [13] = single oral 300 mg, enteric coated capsules
# [14] = single oral 500 mg, enteric coated tablet
# [15] = single oral 600 mg, enteric coated capsules
# [16] = human, plasma, single oral 100 mg, enteric coated capsules
# [17] = human, plasma, single oral 300 mg, enteric coated capsules
# [18] = human, plasma, single oral 500 mg, enteric coated tablet
# [19] = human, plasma, single oral 600 mg, enteric coated capsules
structure (smiles),measurement,setting,value
"COC(=O)c1ccc2c(c1)NC(=O)/C2=C(\Nc1ccc(N(C)C(=O)CN2CCN(C)CC2)cc1)c1ccccc1 [Second component (NIN), Nintedanib]",COL1A1 Relative value (based on control),DHLF cell line; [10],4.60
same,SMA-α Relative value (based on control),DHLF cell line; [10],2.63
same,COL1A1 Relative value (based on control),DHLF cell line; [11],2.81
same,SMA-α Relative value (based on control),DHLF cell line; [11],2.99
same,SpO2 Average value,[1],79.8
same,SpO2 Differance,[1]; vs vehicle,3.8
same,SpO2 Rate of increase,[1]; vs vehicle,5%
same,"total collagen content in lung (hydroxyproline value, ratio compared with normal group)",[2],192
same,Eosinophil count in BALF,[3],0
same,Lymphocyte count in BALF,[3],5
same,Macrophage count in BALF,[3],53
same,Neutrophil count in BALF,[3],10
same,total cell in BALF,[3],69 10^4
same,change in body weight,[4]; Day 0,0.0
same,change in body weight,[4]; Day 7,−10.1
same,change in body weight,[4]; Day 14,−22.6
same,change in body weight,[4]; Day 17,−20.0
same,change in body weight,[4]; Day 21,−18.2
same,drug interaction when administered in combination with the first component vs alone,[5],no clinically significant drug interaction
O[C@H]1CCCN[C@@H]1CCCn1cnc2c(Cl)c(Cl)ccc21 [Active component],CL/F,[6]; [12],156.48 L/h
same,Cmax,[6]; [12],123.96 ng/mL
same,MRT,[6]; [12],9.26 h
same,T1/2,[6]; [12],6.91 h
same,CL/F,[6]; [13],196.59 L/h
same,Cmax,[6]; [13],276.80 ng/mL
same,MRT,[6]; [13],9.75 h
same,T1/2,[6]; [13],8.33 h
same,tmax (median),[6]; [13],2.50 h
same,CL/F,[6]; [14],213.75 L/h
same,Cmax,[6]; [14],513.56 ng/mL
same,MRT,[6]; [14],9.57 h
same,T1/2,[6]; [14],7.80 h
same,tmax (median),[6]; [14],3.01 h
same,CL/F,[6]; [15],312.07 L/h
same,Cmax,[6]; [15],213.43 ng/mL
same,MRT,[6]; [15],9.79 h
same,T1/2,[6]; [15],9.90 h
same,half-life,"[6]; human, plasma, oral, single administration, across 100-600 mg doses, read-out: geometric mean half-life",6.91 to 9.9 h
same,AUC(0-inf),[6]; [16],639 ng·h/mL
same,AUC(0-t),[6]; [16],594 ng·h/mL
same,Tmax,[6]; [16],3 h
same,AUC(0-inf),[6]; [17],1530 ng·h/mL
same,AUC(0-t),[6]; [17],1480 ng·h/mL
same,AUC(0-inf),[6]; [18],2340 ng·h/mL
same,AUC(0-t),[6]; [18],2280 ng·h/mL
same,AUC(0-inf),[6]; [19],1920 ng·h/mL
same,AUC(0-t),[6]; [19],1010 ng·h/mL
same,Tmax,[6]; [19],2 h
same,relationship of plasma concentrations to dose,[6]; single administration,dose proportional relationship
same,Accumulation ratio based on AUCτ,[7]; 25 mg tablet twice a day,1.94
same,CL/Fss,[7]; 25 mg tablet twice a day,122.65 L/h
same,"Cmax, ss",[7]; 25 mg tablet twice a day,36.50 ng/mL
same,MRT,[7]; 25 mg tablet twice a day,10.53 h
same,T1/2,[7]; 25 mg tablet twice a day,7.63 h
same,Vz/Fss,[7]; 25 mg tablet twice a day,1433.79 L
same,"tmax, ss (median)",[7]; 25 mg tablet twice a day,2.00 h
same,AUCτ,[7]; 25 mg tablet twice a day,183.32 ng·h/mL
same,Accumulation ratio based on AUCτ,[7]; 50 mg tablet twice a day,2.33
same,CL/Fss,[7]; 50 mg tablet twice a day,116.53 L/h
same,"Cmax, ss",[7]; 50 mg tablet twice a day,102.61 ng/mL
same,MRT,[7]; 50 mg tablet twice a day,8.44 h
same,T1/2,[7]; 50 mg tablet twice a day,4.40 h
same,Vz/Fss,[7]; 50 mg tablet twice a day,738.97 L
same,AUCτ,[7]; 50 mg tablet twice a day,429.09 ng·h/mL
same,Accumulation ratio based on AUCτ,[7]; 100 mg tablet twice a day,1.88
same,CL/Fss,[7]; 100 mg tablet twice a day,161.97 L/h
same,"Cmax, ss",[7]; 100 mg tablet twice a day,151.27 ng/mL
same,MRT,[7]; 100 mg tablet twice a day,10.17 h
same,T1/2,[7]; 100 mg tablet twice a day,9.26 h
same,Vz/Fss,[7]; 100 mg tablet twice a day,2163.04 L
same,"tmax, ss (median)",[7]; 100 mg tablet twice a day,3.00 h
same,AUCτ,[7]; 100 mg tablet twice a day,617.40 ng·h/mL
same,Accumulation ratio based on AUCτ,[7]; 200 mg tablet twice a day,3.75
same,CL/Fss,[7]; 200 mg tablet twice a day,66.39 L/h
same,"Cmax, ss",[7]; 200 mg tablet twice a day,595.35 ng/mL
same,MRT,[7]; 200 mg tablet twice a day,12.07 h
same,T1/2,[7]; 200 mg tablet twice a day,12.35 h
same,Vz/Fss,[7]; 200 mg tablet twice a day,1182.53 L
same,AUCτ,[7]; 200 mg tablet twice a day,3012.35 ng·h/mL
same,AUC(0-inf),"[7]; human, plasma, oral, 25 mg tablet twice a day",301 ng·h/mL
same,AUC(0-inf),"[7]; human, plasma, oral, 50 mg tablet twice a day",565 ng·h/mL
same,AUC(0-inf),"[7]; human, plasma, oral, 100 mg tablet twice a day",888 ng·h/mL
same,AUC(0-inf),"[7]; human, plasma, oral, 200 mg tablet twice a day",4750 ng·h/mL
same,AUC,"[7]; human, plasma, oral, multiple administration, 14th day, across 25-200 mg, read-out: geometric mean dose interval in vivo exposure (AUCτ)",183 to 3010 ng·h/mL
same,half-life,"[7]; human, plasma, oral, multiple administration, 14th day, across 25-200 mg, read-out: geometric mean half-life",4.4 to 12.3 h
same,relationship of plasma concentrations to dose,"[7]; multiple administration, dose range of 25 mg to 200 mg",dose linear relationship
same,AUCtau,[8]; oral Dose 50 mg,231.6352 ng·h/mL
same,AUCtau—24 hr,[8]; oral Dose 50 mg,463.2704 ng·h/mL
same,CL/F,[8]; oral Dose 50 mg,215856.7 mL/h
same,Cmax,[8]; oral Dose 50 mg,38.271 ng/mL
same,T1/2,[8]; oral Dose 50 mg,9.753 h
same,Tmax,[8]; oral Dose 50 mg,2.803 h
same,AUCtau,[8]; oral Dose 100 mg,463.2704 ng·h/mL
same,AUCtau—24 hr,[8]; oral Dose 100 mg,926.5407 ng·h/mL
same,CL/F,[8]; oral Dose 100 mg,215856.7 mL/h
same,Cmax,[8]; oral Dose 100 mg,76.5419 ng/mL
same,T1/2,[8]; oral Dose 100 mg,9.753 h
same,Tmax,[8]; oral Dose 100 mg,2.803 h
same,AUCtau,[8]; oral Dose 150 mg,694.9055 ng·h/mL
same,AUCtau—24 hr,[8]; oral Dose 150 mg,1389.811 ng·h/mL
same,CL/F,[8]; oral Dose 150 mg,215856.7 mL/h
same,Cmax,[8]; oral Dose 150 mg,114.813 ng/mL
same,T1/2,[8]; oral Dose 150 mg,9.753 h
same,Tmax,[8]; oral Dose 150 mg,2.803 h
same,AUCtau,[8]; oral Dose 200 mg,926.5413 ng·h/mL
same,AUCtau—24 hr,[8]; oral Dose 200 mg,1853 ng·h/mL
same,CL/F,[8]; oral Dose 200 mg,215856.5 mL/h
same,Cmax,[8]; oral Dose 200 mg,153.084 ng/mL
same,T1/2,[8]; oral Dose 200 mg,9.753 h
same,Tmax,[8]; oral Dose 200 mg,2.803 h
same,serious abnormal signs or side effects,[9],no serious abnormal signs or side effects
